Tests used:
Set-up in all cases: scale not given: the % may be the effect or the level left
[1] = target: Serine/threonine-protein kinase 25 (Homo sapiens) (UniProt O00506); assay: Inhibition of DNA-tagged human YSK1 assessed as percent of control at 50000 nM by qPCR analysis relative to control
[2] = target: Maternal embryonic leucine zipper kinase (Homo sapiens) (UniProt Q14680); assay: Inhibition of DNA-tagged human MELK assessed as percent of control at 50000 nM by qPCR analysis relative to control
[3] = target: Ephrin type-B receptor 1 (Homo sapiens) (UniProt P54762); assay: Inhibition of DNA-tagged human EPHB1 assessed as percent of control at 50000 nM by qPCR analysis relative to control
[4] = system: Tyrosine-protein kinase ABL1 (Homo sapiens), P00519 [Y253F]; assay: Inhibition of DNA-tagged phosphorylated human ABL1 Y253F mutant assessed as percent of control at 50000 nM by qPCR analysis relative to control
[5] = target: Mitogen-activated protein kinase kinase kinase 7 (Homo sapiens) (UniProt O43318); assay: Inhibition of DNA-tagged human TAK1 assessed as percent of control at 50000 nM by qPCR analysis relative to control
[6] = target: Insulin receptor (Homo sapiens) (UniProt P06213); assay: Inhibition of DNA-tagged human INSR assessed as percent of control at 50000 nM by qPCR analysis relative to control
[7] = target: Mitogen-activated protein kinase kinase kinase 13 (Homo sapiens) (UniProt O43283); assay: Inhibition of DNA-tagged human LZK assessed as percent of control at 50000 nM by qPCR analysis relative to control
[8] = system: Epidermal growth factor receptor (Homo sapiens), P00533 [G719C]; assay: Inhibition of DNA-tagged human EGFR G719C mutant assessed as percent of control at 50000 nM by qPCR analysis relative to control
[9] = target: Ribosomal protein S6 kinase alpha-1 (Homo sapiens) (UniProt Q15418); assay: Inhibition of DNA-tagged human C-terminal RSK1 kinase domain 2 assessed as percent of control at 50000 nM by qPCR analysis relative to control
[10] = target: Calcium/calmodulin-dependent protein kinase type 1G (Homo sapiens) (UniProt Q96NX5); assay: Inhibition of DNA-tagged human CAMK1G assessed as percent of control at 50000 nM by qPCR analysis relative to control
[11] = target: Peripheral plasma membrane protein CASK (Homo sapiens) (UniProt O14936); assay: Inhibition of DNA-tagged human CASK assessed as percent of control at 50000 nM by qPCR analysis relative to control
[12] = target: Tyrosine-protein kinase SYK (Homo sapiens) (UniProt P43405); assay: Inhibition of DNA-tagged human SYK assessed as percent of control at 50000 nM by qPCR analysis relative to control
[13] = target: Serine/threonine-protein kinase Chk2 (Homo sapiens) (UniProt O96017); assay: Inhibition of DNA-tagged human CHEK2 assessed as percent of control at 50000 nM by qPCR analysis relative to control
[14] = target: Serine/threonine-protein kinase Nek6 (Homo sapiens) (UniProt Q9HC98); assay: Inhibition of DNA-tagged human NEK6 assessed as percent of control at 50000 nM by qPCR analysis relative to control
[15] = target: Mitogen-activated protein kinase 1 (Homo sapiens) (UniProt P28482); assay: Inhibition of DNA-tagged human ERK2 assessed as percent of control at 50000 nM by qPCR analysis relative to control
[16] = target: Calcium/calmodulin-dependent protein kinase type II subunit delta (Homo sapiens) (UniProt Q13557); assay: Inhibition of DNA-tagged human CAMK2D assessed as percent of control at 50000 nM by qPCR analysis relative to control
[17] = target: Cyclin-dependent kinase 2 (Homo sapiens) (UniProt P24941); assay: Inhibition of DNA-tagged human CDK2 assessed as percent of control at 50000 nM by qPCR analysis relative to control
[18] = target: Hepatocyte growth factor receptor (Homo sapiens) (UniProt P08581); assay: Inhibition of DNA-tagged human MET assessed as percent of control at 50000 nM by qPCR analysis relative to control
[19] = target: Activin receptor type-2A (Homo sapiens) (UniProt P27037); assay: Inhibition of DNA-tagged human ACVR2A assessed as percent of control at 50000 nM by qPCR analysis relative to control
[20] = target: Mitogen-activated protein kinase kinase kinase 2 (Homo sapiens) (UniProt Q9Y2U5); assay: Inhibition of DNA-tagged human MAP3K2 assessed as percent of control at 50000 nM by qPCR analysis relative to control
[21] = system: Epidermal growth factor receptor (Homo sapiens), P00533 [UNDEFINED MUTATION]; assay: Inhibition of DNA-tagged human EGFR L747-T751del/Sins double mutant assessed as percent of control at 50000 nM by qPCR analysis relative to control
[22] = target: Cyclin-dependent kinase 9 (Homo sapiens) (UniProt P50750); assay: Inhibition of DNA-tagged human CDK9 assessed as percent of control at 50000 nM by qPCR analysis relative to control
[23] = target: Casein kinase I isoform alpha-like (Homo sapiens) (UniProt Q8N752); assay: Inhibition of DNA-tagged human CSNK1A1L assessed as percent of control at 50000 nM by qPCR analysis relative to control
[24] = target: Cyclin-dependent kinase-like 2 (Homo sapiens) (UniProt Q92772); assay: Inhibition of DNA-tagged human CDKL2 assessed as percent of control at 50000 nM by qPCR analysis relative to control
[25] = target: Calcium-dependent protein kinase 1 (Plasmodium falciparum) (UniProt P62344); assay: Inhibition of DNA-tagged Plasmodium falciparum CDPK1 assessed as percent of control at 50000 nM by qPCR analysis relative to control
[26] = target: Serine/threonine-protein kinase 32B (Homo sapiens) (UniProt Q9NY57); assay: Inhibition of DNA-tagged human YANK2 assessed as percent of control at 50000 nM by qPCR analysis relative to control
[27] = target: Dual specificity mitogen-activated protein kinase kinase 4 (Homo sapiens) (UniProt P45985); assay: Inhibition of DNA-tagged human MEK4 assessed as percent of control at 50000 nM by qPCR analysis relative to control
[28] = target: 5'-AMP-activated protein kinase catalytic subunit alpha-1 (Homo sapiens) (UniProt Q13131); assay: Inhibition of DNA-tagged human AMPK-alpha1 assessed as percent of control at 50000 nM by qPCR analysis relative to control
[29] = target: Serine/threonine-protein kinase PknB (Mycobacterium tuberculosis) (UniProt P9WI81); assay: Inhibition of DNA-tagged Mycobacterium tuberculosis PKNB assessed as percent of control at 50000 nM by qPCR analysis relative to control

Sequence of Cyclin-dependent kinase-like 2 (Homo sapiens) (Q92772 whole entry): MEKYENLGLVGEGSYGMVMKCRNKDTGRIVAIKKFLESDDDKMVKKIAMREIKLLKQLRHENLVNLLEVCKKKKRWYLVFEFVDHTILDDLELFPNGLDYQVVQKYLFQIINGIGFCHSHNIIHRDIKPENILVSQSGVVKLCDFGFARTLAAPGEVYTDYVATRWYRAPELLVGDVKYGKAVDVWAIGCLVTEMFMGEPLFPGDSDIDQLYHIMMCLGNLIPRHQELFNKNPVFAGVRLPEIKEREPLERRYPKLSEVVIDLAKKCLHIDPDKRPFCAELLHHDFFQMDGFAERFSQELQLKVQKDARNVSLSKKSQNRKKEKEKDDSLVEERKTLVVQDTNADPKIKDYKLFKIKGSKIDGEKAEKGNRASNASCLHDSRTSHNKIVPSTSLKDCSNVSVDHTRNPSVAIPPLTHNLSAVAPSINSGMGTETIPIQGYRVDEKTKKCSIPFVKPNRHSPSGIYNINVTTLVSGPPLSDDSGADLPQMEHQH
Sequence of 5'-AMP-activated protein kinase catalytic subunit alpha-1 (Homo sapiens) (Q13131 whole entry, looked up): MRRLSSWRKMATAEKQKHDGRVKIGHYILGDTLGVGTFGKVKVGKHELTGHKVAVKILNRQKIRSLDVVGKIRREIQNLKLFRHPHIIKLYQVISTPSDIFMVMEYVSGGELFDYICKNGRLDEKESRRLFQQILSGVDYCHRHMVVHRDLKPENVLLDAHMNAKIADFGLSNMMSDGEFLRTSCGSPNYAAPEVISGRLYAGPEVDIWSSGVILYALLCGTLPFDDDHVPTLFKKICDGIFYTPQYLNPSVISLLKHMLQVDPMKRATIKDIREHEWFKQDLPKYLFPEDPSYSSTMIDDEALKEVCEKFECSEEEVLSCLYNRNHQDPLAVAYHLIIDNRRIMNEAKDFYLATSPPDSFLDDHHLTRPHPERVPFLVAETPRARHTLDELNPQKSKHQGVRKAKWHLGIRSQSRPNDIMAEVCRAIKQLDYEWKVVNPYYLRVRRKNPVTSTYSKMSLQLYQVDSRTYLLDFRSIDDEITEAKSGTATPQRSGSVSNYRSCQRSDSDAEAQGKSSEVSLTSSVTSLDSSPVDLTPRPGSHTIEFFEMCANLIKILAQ
Sequence of Ribosomal protein S6 kinase alpha-1 (Homo sapiens) (Q15418 whole entry, the tested form may be a part): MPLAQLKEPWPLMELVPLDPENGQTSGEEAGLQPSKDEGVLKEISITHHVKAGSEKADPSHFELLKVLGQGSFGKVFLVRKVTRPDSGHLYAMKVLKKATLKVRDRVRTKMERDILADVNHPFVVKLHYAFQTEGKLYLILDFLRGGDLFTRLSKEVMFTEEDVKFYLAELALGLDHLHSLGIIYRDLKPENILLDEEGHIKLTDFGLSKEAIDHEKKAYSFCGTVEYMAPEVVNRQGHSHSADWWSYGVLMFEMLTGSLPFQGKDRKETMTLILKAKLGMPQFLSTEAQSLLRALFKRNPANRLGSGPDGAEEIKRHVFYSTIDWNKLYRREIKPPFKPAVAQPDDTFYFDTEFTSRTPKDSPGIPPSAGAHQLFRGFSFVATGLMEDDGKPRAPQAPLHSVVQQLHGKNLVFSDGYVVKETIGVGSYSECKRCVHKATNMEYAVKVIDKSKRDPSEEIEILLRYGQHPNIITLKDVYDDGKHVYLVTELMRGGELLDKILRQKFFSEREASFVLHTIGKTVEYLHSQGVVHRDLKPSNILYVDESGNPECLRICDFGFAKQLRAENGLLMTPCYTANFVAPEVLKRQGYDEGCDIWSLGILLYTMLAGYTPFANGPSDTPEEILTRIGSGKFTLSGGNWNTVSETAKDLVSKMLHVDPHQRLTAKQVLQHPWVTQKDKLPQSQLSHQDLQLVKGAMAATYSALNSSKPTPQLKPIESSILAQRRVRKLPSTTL
Sequence of Insulin receptor (Homo sapiens) (P06213 28-758 limits assumed): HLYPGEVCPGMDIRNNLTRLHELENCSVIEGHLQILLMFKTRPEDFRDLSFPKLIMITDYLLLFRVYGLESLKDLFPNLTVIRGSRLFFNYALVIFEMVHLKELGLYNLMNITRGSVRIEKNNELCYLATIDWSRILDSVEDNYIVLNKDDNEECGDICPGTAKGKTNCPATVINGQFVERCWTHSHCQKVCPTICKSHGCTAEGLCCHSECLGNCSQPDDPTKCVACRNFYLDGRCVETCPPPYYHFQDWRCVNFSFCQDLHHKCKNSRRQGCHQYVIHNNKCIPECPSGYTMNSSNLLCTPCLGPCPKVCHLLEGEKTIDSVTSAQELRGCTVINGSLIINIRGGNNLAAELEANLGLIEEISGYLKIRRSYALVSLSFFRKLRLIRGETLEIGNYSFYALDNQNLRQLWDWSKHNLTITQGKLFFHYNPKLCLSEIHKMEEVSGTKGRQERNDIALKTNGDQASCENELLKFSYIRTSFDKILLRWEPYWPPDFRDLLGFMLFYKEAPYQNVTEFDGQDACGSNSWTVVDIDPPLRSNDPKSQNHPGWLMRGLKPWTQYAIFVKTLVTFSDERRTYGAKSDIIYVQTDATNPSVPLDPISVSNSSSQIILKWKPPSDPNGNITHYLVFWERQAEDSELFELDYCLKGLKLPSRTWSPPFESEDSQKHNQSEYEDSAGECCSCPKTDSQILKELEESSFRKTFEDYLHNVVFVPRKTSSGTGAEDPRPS
Sequence of Insulin receptor (Homo sapiens) (P06213 763-1382 limits assumed): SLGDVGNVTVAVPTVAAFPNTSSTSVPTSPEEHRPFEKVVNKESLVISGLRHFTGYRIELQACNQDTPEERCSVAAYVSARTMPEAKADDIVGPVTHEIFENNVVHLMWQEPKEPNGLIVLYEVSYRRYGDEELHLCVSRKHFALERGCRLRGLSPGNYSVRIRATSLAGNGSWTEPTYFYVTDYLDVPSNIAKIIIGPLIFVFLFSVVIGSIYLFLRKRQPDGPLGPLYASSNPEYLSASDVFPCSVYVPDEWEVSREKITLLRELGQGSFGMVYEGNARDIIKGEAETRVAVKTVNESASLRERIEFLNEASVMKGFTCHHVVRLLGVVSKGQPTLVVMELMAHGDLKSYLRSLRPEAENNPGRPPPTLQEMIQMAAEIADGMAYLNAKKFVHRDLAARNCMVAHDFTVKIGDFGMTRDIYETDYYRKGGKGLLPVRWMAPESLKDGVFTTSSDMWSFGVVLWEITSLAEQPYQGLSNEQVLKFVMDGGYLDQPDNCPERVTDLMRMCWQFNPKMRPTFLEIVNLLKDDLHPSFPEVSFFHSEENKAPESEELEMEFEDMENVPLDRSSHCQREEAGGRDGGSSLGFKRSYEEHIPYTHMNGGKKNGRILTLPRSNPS
Sequence of Activin receptor type-2A (Homo sapiens) (P27037 whole entry): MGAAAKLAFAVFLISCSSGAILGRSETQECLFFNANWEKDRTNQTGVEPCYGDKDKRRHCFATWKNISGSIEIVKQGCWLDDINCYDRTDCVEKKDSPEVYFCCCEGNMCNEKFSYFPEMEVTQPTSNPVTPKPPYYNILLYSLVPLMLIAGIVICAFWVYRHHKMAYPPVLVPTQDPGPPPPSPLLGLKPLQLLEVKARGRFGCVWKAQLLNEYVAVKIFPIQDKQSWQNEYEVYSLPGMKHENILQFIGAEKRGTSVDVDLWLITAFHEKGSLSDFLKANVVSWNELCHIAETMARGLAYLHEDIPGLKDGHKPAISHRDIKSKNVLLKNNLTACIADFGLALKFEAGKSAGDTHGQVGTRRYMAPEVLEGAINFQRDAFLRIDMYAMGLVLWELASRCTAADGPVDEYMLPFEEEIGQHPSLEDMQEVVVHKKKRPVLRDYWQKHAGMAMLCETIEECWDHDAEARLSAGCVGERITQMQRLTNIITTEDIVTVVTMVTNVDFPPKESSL
Sequence of Calcium/calmodulin-dependent protein kinase type II subunit delta (Homo sapiens) (Q13557 whole entry): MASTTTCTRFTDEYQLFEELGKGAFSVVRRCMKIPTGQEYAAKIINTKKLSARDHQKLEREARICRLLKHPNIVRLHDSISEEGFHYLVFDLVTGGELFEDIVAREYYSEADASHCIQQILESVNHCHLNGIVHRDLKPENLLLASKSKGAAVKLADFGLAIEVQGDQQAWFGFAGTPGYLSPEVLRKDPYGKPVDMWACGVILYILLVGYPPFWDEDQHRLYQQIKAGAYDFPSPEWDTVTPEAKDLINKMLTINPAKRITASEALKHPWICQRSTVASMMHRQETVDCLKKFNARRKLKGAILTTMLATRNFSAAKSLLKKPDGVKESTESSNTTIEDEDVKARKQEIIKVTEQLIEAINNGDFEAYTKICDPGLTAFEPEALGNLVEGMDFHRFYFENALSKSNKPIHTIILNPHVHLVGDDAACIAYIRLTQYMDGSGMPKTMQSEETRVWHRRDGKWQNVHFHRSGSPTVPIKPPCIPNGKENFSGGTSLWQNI
Sequence of Serine/threonine-protein kinase 25 (Homo sapiens) (O00506 whole entry, looked up): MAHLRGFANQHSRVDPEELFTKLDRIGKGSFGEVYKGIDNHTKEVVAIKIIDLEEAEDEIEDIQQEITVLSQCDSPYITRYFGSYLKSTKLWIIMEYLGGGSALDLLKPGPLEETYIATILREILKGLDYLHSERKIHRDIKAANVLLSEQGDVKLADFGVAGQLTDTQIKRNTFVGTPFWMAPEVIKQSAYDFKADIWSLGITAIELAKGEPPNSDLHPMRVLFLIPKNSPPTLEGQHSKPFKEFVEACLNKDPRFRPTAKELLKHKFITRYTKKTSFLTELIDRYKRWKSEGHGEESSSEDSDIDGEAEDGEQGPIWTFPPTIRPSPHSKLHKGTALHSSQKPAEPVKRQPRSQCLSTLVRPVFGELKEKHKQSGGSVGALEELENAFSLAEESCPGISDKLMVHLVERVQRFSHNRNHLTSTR
Sequence of Serine/threonine-protein kinase 32B (Homo sapiens) (Q9NY57 whole entry): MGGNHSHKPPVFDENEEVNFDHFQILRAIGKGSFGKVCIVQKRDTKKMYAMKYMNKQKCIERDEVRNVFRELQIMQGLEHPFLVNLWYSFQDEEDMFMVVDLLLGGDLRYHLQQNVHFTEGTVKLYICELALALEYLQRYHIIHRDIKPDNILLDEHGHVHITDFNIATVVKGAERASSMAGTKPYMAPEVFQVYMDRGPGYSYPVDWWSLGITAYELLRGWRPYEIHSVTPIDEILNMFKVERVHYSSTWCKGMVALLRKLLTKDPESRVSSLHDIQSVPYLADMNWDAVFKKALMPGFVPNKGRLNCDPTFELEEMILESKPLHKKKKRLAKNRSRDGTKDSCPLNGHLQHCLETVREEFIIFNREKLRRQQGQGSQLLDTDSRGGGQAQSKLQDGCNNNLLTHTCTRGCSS

Question: Which results are given for `CN1C(=O)/C(=C2/C(=O)Nc3ccccc32)c2ccccc21`?
Answer: Activity [1]: 40%; Activity [2]: 83%; Activity [3]: 97%; Activity [4]: 100%; Activity [5]: 78%; Activity [6]: 91%; Activity [7]: 63%; Activity [8]: 89%; Activity [9]: 84%; Activity [10]: 85%; Activity [11]: 100%; Activity [12]: 85%; Activity [13]: 100%; Activity [14]: 81%; Activity [15]: 100%; Activity [16]: 80%; Activity [17]: 100%; Activity [18]: 100%; Activity [19]: 99%; Activity [20]: 99%; Activity [21]: 87%; Activity [22]: 84%; Activity [23]: 97%; Activity [24]: 100%; Activity [25]: 87%; Activity [26]: 100%; Activity [27]: 100%; Activity [28]: 100%; Activity [29]: 100%
